Test results taken from US20110300132A1, “4-AMINOQUINAZOLINE PRODRUGS” (Concert Pharmaceuticals, Inc., priority 2008, published 2011).
Converted amounts (≈) assume the structure as drawn. Where two headings read alike, the source gives them in different places.

Key:
[1] = Evaluation of aqueous solubility in different aqueous buffers (HPLC quantification); type: physicochemical; conditions: thermodynamic from solid, equilibrated at 25° C. for 24 hours
Procedure: Aqueous solubility of the compounds of this invention was determined by suspending sufficient compound in different aqueous buffers to give a maximum final concentration of ≧10 mg/mL of the compound. The resulting suspension was equilibrated at 25° C. for 24 hours then the pH is measured. The suspension was then filtered through a glass fibre C filter into a 96 well plate. The filtrate was diluted by a factor of 10. Quantification was by HPLC with reference to a standard solution in DMSO. Different volumes of the standard, diluted and undiluted sample solutions were injected. The solubility was calculated using the peak areas determined by integration of the peak found at the same retention time as the principal peak in the standard injection.

[2] = as reported on FDA approved label, cited from earlier work
[3] = Buffer: FaSSIF (fasted state simulated intestinal fluid), final pH 6.61 (103), 6.58 (101)

solubility at 24 h ([1]; aqueous buffer, Buffer: Phosphate pH 6.3, final pH 6.45) [µg/mL]	solubility at 24 h ([1]; aqueous buffer, Buffer: Phosphate pH 6.8, final pH 7.03) [µg/mL]	solubility at 24 h ([1]; aqueous buffer, Buffer: Phosphate pH 7.3, final pH 7.41) [µg/mL]	solubility at 24 h [1, 3] [µg/mL]	SMILES	Solubility ([2]; 0.1N HCl) [µg/mL]	Solubility ([2]; Water) [µg/mL]
170	520	4600	9100	CS(=O)(=O)CCN(Cc1ccc(-c2ccc3ncnc(Nc4ccc(OCc5cccc(F)c5)c(Cl)c4)c3c2)o1)C(=O)OCOP(=O)([O-])[O-].[Na+].[Na+] [Compound 103, Sodium (((5-(4-(3-Chloro-4-(3-fluorobenzyloxy)phenylamino)quinazolin-6-yl)furan-2-yl)methyl)(2-(methylsulfonyl)ethyl)carbamoyloxy)methyl phosphate]	–	–
–	–	–	–	CS(=O)(=O)CCNCc1ccc(-c2ccc3ncnc(Nc4ccc(OCc5cccc(F)c5)c(Cl)c4)c3c2)o1.Cc1ccc(S(=O)(=O)O)cc1.Cc1ccc(S(=O)(=O)O)cc1.O [Lapatinib ditosylate, N-[3-Chloro-4-(3-fluorobenzyloxy)phenyl]-6-[5-[2-(methylsulfonyl)ethylaminomethyl]furan-2-yl]quinazolin-4-amine bis(4-methylbenzenesulfonate) hydrate]	1	7
–	–	–	25 (≈ 34 µM)	CS(=O)(=O)CCN(Cc1ccc(-c2ccc3ncnc(Nc4ccc(OCc5cccc(F)c5)c(Cl)c4)c3c2)o1)C(=O)OCOP(=O)(O)O [Compound 101, Phosphonooxymethyl (5-(4-(3-chloro-4-(3-fluorobenzyloxy)phenylamino)quinazolin-6-yl)furan-2-yl)methyl(2-(methylsulfonyl)ethyl)carbamate]	–	–
